Reference: patent publication US9636336B2, “Aminoester derivatives” (CHIESI FARMACEUTICI S.p.A., priority 2015, dated 2017)
Read-outs that look alike come from different tables or passages of the source.

Experiments:
[1] = target: Human M3 receptor membranes (Homo sapiens (Human), UniProt P20309); assay: M3 Receptor radioligand binding assay; conditions: M3 Receptor radioligand binding assay; for Ki: Ki from IC50 by Cheng and Prusoff
Experimental: M3 Receptor Radioligand Binding Assay:
The assay is carried out in 96-well polypropylene plates in a volume of 250 μl. […] The final assay concentration of DMSO is 0.5% (v/v). The plates are sealed and incubated for 2 h at room temperature on an orbital shaker (slow speed). Membranes are harvested onto 96-well unifilter GF/C filter plates pre-treated with 0.5% polyethyleneimine (v/v), using a filter manifold, washed four times with 200 μl of assay buffer. The plates are dried before addition of 50 μl of microscint-0, sealed then read in a Trilux Microbeta scintillation counter. IC50 values are determined from competition curves using a non-linear curve fitting program. Ki values are calculated from IC50 values by the Cheng and Prusoff equation.

[2] = system: Cch-evoked bronchoconstriction in rats; assay: Bronchospasm, percentage of inhibition (Cch-induced bronchoconstriction, duration of action); format: in vivo, Male CD Sprague Dawley rats; conditions: rat; for sub-maximal inhibition Dose: Dose producing about 80% (sub-maximal) inhibition of the bronchospasm after 1 h, intratracheal; for inhibition at 16 h: inhibition of bronchospasm 16 h after intratracheal administration of the sub-maximal inhibition dose
Experimental: Protocol of Bronchospasm—Percentage of Inhibition
Male CD Sprague Dawley rats (220-250 g) were purchased from Charles River Laboratories Italy (Calco, Lecco). Prior to use animals were acclimated for at least 5 days to the local vivarium conditions (room temperature: 20-24° C.; relative humidity: 40-70%), having free access to standard rat chow and softened tap water. All the procedures were performed in animal operating rooms according to ethical guidelines for the conduct of animal research (D. L.vo 116/92).
Treatment with Test Compounds
Animals were anaesthetised with Urethane (1.2 g/kg, i.p.) and a laryngoscope was moved forward into the mouth to visualize the trachea and guide the insertion of the tip of a custom made small diameter cannula directly into the trachea and located 1-2 mm above the bifurcation. Test compounds were dissolved in 100% dimethyl sulphoxide (DMSO) at 10^−2 M. The target concentration was obtained by dilution of the DMSO stock in saline. Test compounds were instilled locally into the trachea in a volume of 125 μl.
In order to assess the residual inhibitory activity of test compounds at 1-16 hours after their administration, rats were surgically prepared. In order to assess the Cch-induced bronchoconstriction in rats, the infusion of physiological solution was stopped and the bronchospastic agent injected into the jugular vein using the same cannula. Soon after washing the cannula with saline to ensure the complete administration of the bronchoconstrictor agent, the saline infusion was started again. Body temperature was kept constant at 37° C. by a heated blanket.
The trachea was cannulated and the lungs were ventilated artificially with a small animal constant volume ventilator (rodent ventilator mod. 7025, Ugo Basile, Comerio, Varese, Italy) at a frequency of 80 strokes/min and at a tidal volume of 2.5 ml/kg. To avoid spontaneous breathing, the animals were injected intravenously (i.v.) with pancuronium bromide (2 mg/kg). Bronchoconstriction was induced by the i.v. injection of Cch 50 μg/kg. In control experiments, repeated injections of this dose produced reproducible short-lasting (1-2 min duration) bronchospasms. Bronchoconstriction, quantified as a reduction of tidal volume, was evaluated according to the method described by Konzett & Roessler in Konzett H. and Roessler R., Versuchanornungzu untersuchungen ande bronchialmuskulatur. Arch. Exp. Path. Pharmak.; 195:71-74 (1940), which is incorporated herein by reference in its entirety.
Systemic blood pressure and changes in airway resistance were monitored with a digital pressure transducer connected to a bridge amplifier (PowerLab; Ugo Basile, Italy) and recorded using Chart 5 software (Ugo Basile, Italy).
After stabilization of artificial breathing and blood pressure, animals were injected (i.v.) with Cch every 3 min, until 3 stable and reproducible basal responses were obtained. […] The effect of test compounds was expressed as % inhibition of Cch-evoked bronchoconstriction in time-matched, vehicle-treated, animals (controls).

COPD patients = conditions: cited from earlier work
[3] = system: smoking model of COPD in mice; conditions: cited from earlier work
[4] = patients with severe disease, frequent exacerbations and mucus hypersecretion

Sequence of Human M3 receptor membranes (P20309 whole entry): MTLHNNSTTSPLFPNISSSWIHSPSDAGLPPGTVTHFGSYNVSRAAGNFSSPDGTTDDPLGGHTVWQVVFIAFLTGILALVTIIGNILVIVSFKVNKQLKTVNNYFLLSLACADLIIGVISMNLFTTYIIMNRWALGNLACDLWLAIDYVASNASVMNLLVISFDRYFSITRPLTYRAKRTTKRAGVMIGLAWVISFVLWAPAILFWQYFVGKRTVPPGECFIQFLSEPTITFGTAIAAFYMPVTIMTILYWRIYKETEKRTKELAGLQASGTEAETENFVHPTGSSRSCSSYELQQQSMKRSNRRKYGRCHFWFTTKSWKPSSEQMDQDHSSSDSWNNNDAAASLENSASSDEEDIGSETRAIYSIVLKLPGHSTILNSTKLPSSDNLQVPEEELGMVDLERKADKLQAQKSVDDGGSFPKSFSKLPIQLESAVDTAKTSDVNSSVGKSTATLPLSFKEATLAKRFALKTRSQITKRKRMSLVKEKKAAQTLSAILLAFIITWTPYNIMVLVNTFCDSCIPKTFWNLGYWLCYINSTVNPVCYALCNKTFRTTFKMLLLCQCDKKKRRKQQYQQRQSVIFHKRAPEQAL

Ki [1] [nM]	IC50 ([1]; read-out: M3 IC50) [nM]	SMILES	sub-maximal inhibition Dose [2] [nmol/kg]	inhibition at 16 h [2] [%]	IC50 ([1]; read-out: M3 IC50 activity) [nM]	reduction of numbers of neutrophils in sputum (COPD patients; COPD patients, oral, over 4 weeks) [%]	improvement of FEV 1 (COPD patients; [4])	reduction of exacerbation (COPD patients; [4])	lung inflammation and emphysema [3]
0.54	1.08	COc1ccc([C@H](Cc2c(Cl)c[n+]([O-])cc2Cl)OC(=O)c2ccc(CNC(C(=O)O[C@H]3CCN(C)C3)c3ccccc3)s2)cc1OC (single isomer, unassigned) [Example 78c, reference compound]	100	26					
0.3	0.5	COc1ccc([C@H](Cc2c(Cl)c[n+]([O-])cc2Cl)OC(=O)c2ccc(CNC(C(=O)OC3CCN(C)CC3)c3ccccc3)s2)cc1OC (single isomer, unassigned) [Example 87c, reference compound]	30	<10					
0.23	0.45	COc1ccc([C@H](Cc2c(Cl)c[n+]([O-])cc2Cl)OC(=O)c2ccc(CNC(CO)(C(=O)OC3CCN(C)CC3)c3ccccc3)s2)cc1OC (single isomer, unassigned) [Example 105c, reference compound]	10	35					
		COc1ccc([C@H](Cc2c(Cl)c[n+]([O-])cc2Cl)OC(=O)c2ccc(CNC(C(=O)OC[C@H]3CCN(C)C3)c3ccccc3)s2)cc1OC (stereo partly drawn) [Example 78, [(1S)-2-(3,5-dichloro-1-oxido-pyridin-1-ium-4-yl)-1-(3,4-dimethoxyphenyl)ethyl] 5-[[[2-[[(3S)-1-methylpyrrolidin-3-yl]methoxy]-2-oxo-1-phenyl-ethyl]amino]methyl]thiophene-2-carboxylate]	30	51	1 to 10				
		COc1ccc([C@H](Cc2c(Cl)c[n+]([O-])cc2Cl)OC(=O)c2ccc(CNC(CO)(C(=O)OCC3CCN(C)CC3)c3ccccc3)s2)cc1OC (stereo partly drawn) [Example 105, [(1S)-2-(3,5-dichloro-1-oxido-pyridin-1-ium-4-yl)-1-(3,4-dimethoxyphenyl)ethyl] 5-[[[1-(hydroxymethyl)-2-[(1-methyl-4-piperidyl)methoxy]-2-oxo-1-phenyl-ethyl]amino]methyl]thiophene-2-carboxylate]	30	88					
		O=C(Nc1c(Cl)cncc1Cl)c1ccc(OC(F)F)c(OCC2CC2)c1 [roflumilast]				36	approximately 50 mL	about 15%	inhibits lung inflammation and emphysema
